Reference: patent US6706664B1, “Benzoxazole compounds, process for the preparation thereof and herbicides” (UBE Industries, Ltd., priority 1999, dated 2004)

Key:
Parameters in all cases: key: 0: normal development; 1: Less damaged; 2: Slightly damaged; 3: Moderately damaged; 4: Severely damaged; 5: All killed
green foxtail [1] = test: Soil treatment test for upland field; type: in vivo, Setaria viridis; conditions: 500 g/ha, glass house 25° C., 3 weeks
Summary of the method: (§1)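 Visual 0–5 damage rating recorded 3 weeks after a pre-emergence soil spray of 500 g/ha on seeded Ube alluvial soil, with plants held in a glasshouse near 25° C.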

common lambsquartes = test: Soil treatment test for upland field; type: in vivo, Chenopodium album; conditions: 500 g/ha, glass house 25° C., 3 weeks
Summary of the method: as §1

green foxtail [2] = test: Foliar spread test for upland field; type: in vivo, Setaria viridis; conditions: foliar spray 500 ppm, 3 weeks, rank vs non-treated
Summary of the method: (§2)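 Wettable powders at 500 ppm, with 0.5% surfactant, were sprayed uniformly over plants raised for roughly 2 weeks in glasshouse pots of volcanic ash soil. Herbicidal damage rated on a 0–5 scale (5 = all killed) after a further 3 weeks at an average 25 °C.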

soybean = test: Soil treatment test for upland field; type: in vivo; conditions: 500 g/ha, glass house 25° C., 3 weeks
Summary of the method: as §1

sugar beat [3] = test: Soil treatment test for upland field; type: in vivo; conditions: 500 g/ha, glass house 25° C., 3 weeks
Summary of the method: as §1

corn [4] = test: Soil treatment test for upland field; type: in vivo; conditions: 500 g/ha, glass house 25° C., 3 weeks
Summary of the method: as §1

cotton = test: Soil treatment test for upland field; type: in vivo; conditions: 500 g/ha, glass house 25° C., 3 weeks
Summary of the method: as §1

wheat [5] = test: Soil treatment test for upland field; type: in vivo; conditions: 500 g/ha, glass house 25° C., 3 weeks
Summary of the method: as §1

solgum [6] = test: Soil treatment test for upland field; type: in vivo; conditions: 500 g/ha, glass house 25° C., 3 weeks
Summary of the method: as §1

livid amaranth = test: Soil treatment test for upland field; type: in vivo, Amaranthus lividus; conditions: 500 g/ha, glass house 25° C., 3 weeks
Summary of the method: as §1

annual bluegrass = test: Soil treatment test for upland field; type: in vivo, Poa annua; conditions: 500 g/ha, glass house 25° C., 3 weeks
Summary of the method: as §1

sugar beat [7] = test: Foliar spread test for upland field; type: in vivo; conditions: foliar spray 500 ppm, 3 weeks, rank vs non-treated
Summary of the method: (§3)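 Two-week-old glasshouse seedlings on volcanic ash soil were treated by foliar spray at 500 ppm, with 0.5% surfactant in the diluent. Effects were graded visually after three weeks, from 0 for no injury to 5 for complete kill.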

corn [8] = test: Foliar spread test for upland field; type: in vivo; conditions: foliar spray 500 ppm, 3 weeks, rank vs non-treated
Summary of the method: as §3

wheat [9] = test: Foliar spread test for upland field; type: in vivo; conditions: foliar spray 500 ppm, 3 weeks, rank vs non-treated
Summary of the method: as §3

solgum [10] = test: Foliar spread test for upland field; type: in vivo; conditions: foliar spray 500 ppm, 3 weeks, rank vs non-treated
Summary of the method: as §3

morning glory = test: Foliar spread test for upland field; type: in vivo, Ipomoea spps.; conditions: foliar spray 500 ppm, 3 weeks, rank vs non-treated
Summary of the method: as §2

monochoria = test: Herbicidal test for paddy field; type: in vivo, Monochoria vaginalis; conditions: paddy field pot, 500 g/ha dropwise at 1.5 leaf stage of barnyardgrass, 3 weeks, rank vs non-treated
Summary of the method: (§4)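 Scores ran from 0 (normal development) to 5 (all killed) against untreated pots, judged after 3 weeks in a glasshouse averaging 25° C. Compound, as wettable powder diluted in water with 0.05% surfactant, was applied dropwise into 3 cm-deep paddy water at 500 g/ha. Application was at the 1.5-leaf stage of barnyardgrass.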

young rice plant = test: Herbicidal test for paddy field; type: in vivo; conditions: paddy field pot, 500 g/ha dropwise at 1.5 leaf stage of barnyardgrass, 3 weeks, rank vs non-treated
Summary of the method: as §4

blackgrass = test: Foliar spread test for upland field; type: in vivo, Alopecurus aegualis; conditions: foliar spray 500 ppm, 3 weeks, rank vs non-treated
Summary of the method: as §2

| SMILES | Effects Green foxtail (green foxtail [1]) | Effects Common lambsquarters (common lambsquartes) | Effects Green foxtail (green foxtail [2]) | Effects Soybean (soybean) | Effects Sugar beat (sugar beat [3]) | Effects Corn (corn [4]) | Effects Cotton (cotton) | Effects Wheat (wheat [5]) | Effects Solgum (solgum [6]) | Effects Livid amaranth (livid amaranth) | Effects Annual bluegrass (annual bluegrass) | Effects Sugar beat (sugar beat [7]) | Effects Corn (corn [8]) | Effects Wheat (wheat [9]) | Effects Solgum (solgum [10]) | Effects Morning glory (morning glory) | Effect Monochoria (monochoria) | Effect Young rice plant (young rice plant) | Effects Blackgrass (blackgrass) |
| --- | --- | --- | --- | --- | --- | --- | --- | --- | --- | --- | --- | --- | --- | --- | --- | --- | --- | --- | --- |
| CCCC(Oc1ccc(F)c(C(F)(F)F)c1)c1nc2cc(F)c(Cl)cc2o1 (centres unmarked) [Compound 494] | 5 | 4 | 3 | 0 | 5 | 1 | 0 | 1 | 1 | 5 | 5 | 3 | 2 | 1 | 1 | 2 | 5 | – | – |
| CC(Oc1ccc(F)c(C(F)(F)F)c1)c1nc2cc(Cl)ccc2o1 (centres unmarked) [Compound 137] | 5 | 2 | 3 | 0 | 2 | 1 | 0 | 1 | 1 | 5 | 5 | 5 | 2 | 1 | 1 | 2 | 3 | 1 | – |
| CCC(Oc1cccc(OC(F)(F)F)c1)c1nc2cc(C#N)c(C#N)cc2o1 (centres unmarked) [Compound 527] | 5 | 5 | 5 | 1 | 5 | 2 | 0 | 1 | 1 | 5 | 5 | 5 | – | 2 | 1 | – | 4 | 2 | 2 |
| CCC(Oc1ccc(F)c(C(F)(F)F)c1)c1nc2cc(F)ccc2o1 (centres unmarked) [Compound 119, 1-(5-fluorobenzoxazol-2-yl)-1-(4-fluoro-3-(trifluoromethyl)phenoxy)propane] | 5 | 1 | 1 | 0 | 5 | 0 | 0 | 0 | 0 | 5 | 5 | 3 | 2 | 1 | 1 | 3 | 4 | 1 | – |
| CCC(Oc1cccc(C#N)c1)c1nc2cc(F)c(Cl)cc2o1 (centres unmarked) [Compound 498] | 5 | 5 | 4 | 1 | 5 | 0 | 1 | 1 | 1 | 5 | 5 | 4 | 1 | 2 | 1 | – | 2 | 1 | – |
| CCCC(Oc1cccc(C(F)(F)F)c1)c1nc2cc(F)c(Cl)cc2o1 (centres unmarked) [Compound 497] | 5 | 5 | 4 | 1 | 5 | 1 | 1 | 1 | 1 | 5 | 4 | 5 | 2 | 2 | 1 | – | 4 | 2 | – |
